The values that follow are results of earlier work, collected in patent US20020119970A1, “Method for treating glaucoma IIB” (priority 2000, published 2002).

Molecules are shown by their SMILES.

One data set concerns Aged Rhesus monkeys. Particulars: drug treated vs. control eye; baseline and pilocarpine-stimulated conditions; result referred to co-filed application "Methods for Treating Glaucoma I".
For the next data set, the system named is Rhesus monkeys. Particulars: accommodative responses to i.m. pilocarpine; result referred to co-filed application "Methods for Treating Glaucoma I".

With `Cc1sc[n+](CC(=O)c2ccccc2)c1C.[Cl-]` [4,5-dimethyl-3-(2-oxoethyl-phenethyl)thiazolium chloride], the “improvement in ophthalmologic function (fluid outflow facility)” value in the data set on Aged Rhesus monkeys is “improvement has been illustrated”. Besides, the Improvement in accommodation entry with Rhesus monkeys is “Improvement in accommodation has been illustrated”.
